Values joined by “and” are separate entries in the source; they are usually repeats but may differ in a detail not shown here. Equal values may be shown once.
System: rat submandibular gland
Assay: Cationic liposome-mediated hGH gene delivery to rat submandibular gland
Assay type: in vivo
Parameters: human growth hormone protein expression, Trial 1 to Trial 8: unit not given here
Conditions: for human growth hormone protein expression, Average / human growth hormone protein expression, Trial 1 to Trial 8: one week post-administration; for human growth hormone protein expression, Trial 1 to Trial 8: individual glands, DOHBD:DOPE liposome, 175 micrograms pCMV.FOX.hGH per gland, listed as Zn
Description: In embodiments in which a liposome/transition metal/nucleic acid mixture was used, 200 μl of the liposome/transition metal/nucleic acid mixture was injected, infused, instilled or administered at the ductal orifice or directly into the duct at any point along its length. See Goldfine, Nature Biotechnology 15:1378, 1997. The liposome/transition metal/nucleic acid mixture was prepared by sequentially adding an appropriate amount of sterile water, liposome solution (3:1, N,N,N′,N′-tetramethyl-N,N′-bis(2-hydroxyethyl)-2,3-bis(9(z)-octadecenoyloxy)-1,4-butanediaminium iodide (DOHBD):DOPE), transition metal enhancer, and the plasmid DNA pCMV.FOX.hGH to a polypropylene tube.
Regardless of whether a liposome/transition metal/nucleic acid mixture or a nucleic acid/transition metal enhancer mixture was delivered, the tubing and mixture was kept in place for ten additional minutes after application of the mixture prior to removal. At 48 hours post atropine administration, the rats were anesthetized by intraperitoneal injection of pentobarbital (50 mg/kg). The right and left submandibular glands were surgically removed, and the tissues were assayed for any observable reporter gene (luciferase of hGH) expression using the methods described below.
In one embodiment, an appropriate mass of cationic lipid and the neutral lipid dioleoylphosphatidylethanolamine (DOPE) was added as solutions in chloroform to 1.9 mL sample vials to yield the desired molar ratio of cationic lipid:DOPE. The chloroform was removed via rotary evaporation at 37° C. The resulting thin lipid films were placed under vacuum overnight to insure that all traces of solvent have been removed. The lipid mixture was resuspended in 1 mL sterile water at 25° C. until the film is hydrated, and then vortex mixed to afford an emulsion. For the in vitro experiments, these emulsions were formulated as a cationic lipid concentration of 1 mM. For the in vivo experiments, the emulsions were formulated at a cationic lipid concentration of 3 mM.
To perform this study, cationic lipid/nucleic acid/zinc mixtures were prepared by mixing the appropriate amount of sterile water, cationic liposomes, zinc chloride and pCMV.FOX.hGH plasmid DNA in a polystyrene tube. Specifically, 40 microliters of a 3 mM 3:1 DOHBD:DOPE liposome mixture, 270 microliters of a 8.08 microgram/microliter pCMV.FOX.hGH plasmid DNA mixture, and an appropriate amount of a 70 mM zinc chloride mixture were added to a polystyrene tube containing a sufficient amount of water to give a final total volume of 2500 microliters. In this experiment, the final zinc chloride concentration was either 0.125 mM, 0.250 mM, or no zinc at all. The cationic lipid:DNA phosphate ratio in this study remained constant for all mixtures screened. Once prepared, 200 microliters of each mixture was instilled into the right and left submandibular glands of four male Sprague-Dawley rats. Thus, 175 micrograms of the plasmid DNA was instilled into each gland. After one week post-administration of the cationic lipid/nucleic acid/zinc mixtures, the salivary gland of the rats were extracted, mixed with a phosphate lysis buffer (10 mM, pH 8.0) and homogenized. The homogenate was then assayed for human growth hormone protein expression. […]

[Cl-].[Cl-].[Zn+2] [ZnCl2, zinc chloride]
human growth hormone protein expression, Average ([Zn] 0.125 mM): 505.6361
human growth hormone protein expression, Average ([Zn] 0.25 mM): 464.7687
human growth hormone protein expression, Trial 1 to Trial 8 ([Zn] 0.125 mM): 452.1 and 360.8 and 261.7 and 355.7 and 517.2 and 575.6 and 943.5 and 1084
human growth hormone protein expression, Trial 1 to Trial 8 ([Zn] 0.25 mM): 857.731 and 753.3 and 272.6 and 315.3 and 604.3 and 449.9
enhancement of in vivo transfection compared to cationic liposome/nucleic acid mixture not containing zinc (rat submandibular gland): at least two

— patent US6624149B2, “Method for nucleic acid transfection of cells” (Genteric, Inc., priority 2000, dated 2003)
